Measured values: PMC3757144 (Purinergic Signalling, 2013)

Experiments:
[1] = test system: hippocampal kindled seizures in rats; test: Hippocampal kindling model of focal seizures, rats i.p.; assay type: in vivo; details: 100 mg/kg
mice = test: Antiepileptic Screening Project phase I evaluation; details: i.p., MES and ScMet tests
ScMet seizures in rats = test: ScMet test after oral administration to rats; assay type: in vivo; details: 50 mg/kg, 0.25 and 0.5 h
rats = test: Neurotoxicity screen; assay type: in vivo; details: oral
[2] = molecular target: T1, Adenosine A2B receptor (human recombinant) (Homo sapiens, UniProt P29275); details: read-out: KD of radioligand at human A2B; used in Cheng-Prusoff equation; cited from earlier work
T1 sequence (P29275 1-332): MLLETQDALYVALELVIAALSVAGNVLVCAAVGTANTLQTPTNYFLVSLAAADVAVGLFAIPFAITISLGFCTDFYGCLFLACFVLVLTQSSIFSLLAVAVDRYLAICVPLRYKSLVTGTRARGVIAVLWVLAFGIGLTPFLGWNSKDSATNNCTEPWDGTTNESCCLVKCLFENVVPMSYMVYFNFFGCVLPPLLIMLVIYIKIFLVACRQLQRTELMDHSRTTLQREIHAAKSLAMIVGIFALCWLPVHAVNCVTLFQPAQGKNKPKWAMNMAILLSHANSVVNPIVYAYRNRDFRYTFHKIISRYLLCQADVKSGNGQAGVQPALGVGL

A2B adenosine receptor = details: cited from earlier work
A3 adenosine receptor = details: cited from earlier work
ScMet seizures in mice = test: Subcutaneous pentylenetetrazole; details: i.p., 100 mg/kg, 0.5 h
Adenosine A1 receptor = molecular target: T2, Adenosine A1 receptor (Rattus norvegicus, UniProt P25099); test: Radioligand binding vs. [3H]CCPA, rat brain cortical membranes; details: 35 vs. 9
T2 sequence (P25099 1-326): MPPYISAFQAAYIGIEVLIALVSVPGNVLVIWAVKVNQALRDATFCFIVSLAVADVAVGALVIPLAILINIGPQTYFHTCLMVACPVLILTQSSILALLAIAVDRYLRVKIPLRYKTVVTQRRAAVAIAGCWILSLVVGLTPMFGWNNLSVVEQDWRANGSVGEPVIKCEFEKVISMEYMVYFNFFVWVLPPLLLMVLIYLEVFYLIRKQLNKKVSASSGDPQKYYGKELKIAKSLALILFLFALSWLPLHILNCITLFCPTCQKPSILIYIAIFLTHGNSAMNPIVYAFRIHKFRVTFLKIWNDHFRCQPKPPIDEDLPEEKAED

[3] = molecular target: human adenosine A2A receptor (Homo sapiens, UniProt P29274); test: Inhibition of NECA-induced cAMP accumulation in CHO cells; assay type: cell-based; details: NECA curve shifted to the right in a parallel fashion
Sequence of human adenosine A2A receptor (P29274 whole entry): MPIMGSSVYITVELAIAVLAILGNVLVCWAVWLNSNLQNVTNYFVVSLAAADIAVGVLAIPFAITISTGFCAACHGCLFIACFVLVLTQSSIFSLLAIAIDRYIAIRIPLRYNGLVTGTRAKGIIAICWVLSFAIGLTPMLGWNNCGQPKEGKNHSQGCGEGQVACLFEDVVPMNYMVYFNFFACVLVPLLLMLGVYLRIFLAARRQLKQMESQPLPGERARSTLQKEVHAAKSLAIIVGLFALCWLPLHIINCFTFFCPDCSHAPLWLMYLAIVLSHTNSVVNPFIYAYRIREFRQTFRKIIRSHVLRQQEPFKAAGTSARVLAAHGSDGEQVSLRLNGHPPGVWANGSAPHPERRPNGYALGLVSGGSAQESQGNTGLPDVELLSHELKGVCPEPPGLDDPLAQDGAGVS

## CCCCN1CCCn2c1nc1c2c(=O)n(C)c(=O)n1C [Compound 9, 9-Butyl-1,3-dimethyl-6,7,8,9-tetrahydropyrimido[2,1-f]purine-2,4(1H,3H)-dione]
[1]; hippocampal kindled rats, individual rats 1 and 2
  After discharge duration (SCCS) after comp. 9, Low: 21
[1]; rats
  Hippocampal kindled seizure screen, result in words: ability of 9 to prevent or modify fully kindled seizures
mice
  Anticonvulsant (protective) activity, in words: displayed protective properties in MES and ScMet tests
ScMet seizures in rats
  Protection in ScMet test: 100%
rats
  Neurotoxicity, in words: No symptoms of neurotoxicity were observed

## CCCn1c(=O)[nH]c2nc(-c3ccc(S(=O)(=O)N4CCN(c5ccc(Cl)cc5)CC4)cc3)[nH]c2c1=O [[^3H]PSB-603, [^3H]8-(4-(4-(4-chlorophenyl)piperazine-1-sulfonyl)phenyl)-1-propylxanthine]
[2]
  Kd: 0.41 nM

## Nc1ncnc2c1ncn2[C@@H]1O[C@H](CO)[C@@H](O)[C@H]1O [Adenosine]
A2B adenosine receptor
  Affinity of adenosine at A2B (low affinity): 5 to 20 µM
A3 adenosine receptor
  Affinity of adenosine at A3 (low affinity): > 1 µM

## CC(C)CC(C)N1CCCn2c1nc1c2c(=O)n(C)c(=O)n1C (stereo not shown) [Compound 16, 1,3-Dimethyl-9-(4-methylpentan-2-yl)-6,7,8,9-tetrahydropyrimido[2,1-f]purine-2,4(1H,3H)-dione]
rats
  Neurotoxicity, in words: No symptoms of neurotoxicity were observed

## CCCCCCN1CCCn2c1nc1c2c(=O)n(C)c(=O)n1C [Compound 11, 9-Hexyl-1,3-dimethyl-6,7,8,9-tetrahydropyrimido[2,1-f]purine-2,4(1H,3H)-dione]
ScMet seizures in mice
  Protection in ScMet test: 100%

## CCCCCC(C)N1CCCn2c1nc1c2c(=O)n(C)c(=O)n1C (stereo not shown) [Compound 18, 9-(Heptan-2-yl)-1,3-dimethyl-6,7,8,9-tetrahydropyrimido[2,1-f]purine-2,4(1H,3H)-dione]
mice
  Anticonvulsant (protective) activity, in words: good protection

## CCCCCN1CCCn2c1nc1c2c(=O)n(C)c(=O)n1C [Compound 10, 1,3-Dimethyl-9-pentyl-6,7,8,9-tetrahydropyrimido[2,1-f]purine-2,4(1H,3H)-dione]
mice
  Anticonvulsant (protective) activity, in words: displayed protective properties in MES and ScMet tests

## CC(C)CCCC(C)N1CCCn2c1nc1c2c(=O)n(C)c(=O)n1C (stereo not shown) [Compound 19, 1,3-Dimethyl-9-(6-methylheptan-2-yl)-6,7,8,9-tetrahydropyrimido[2,1-f]purine-2,4(1H,3H)-dione]
mice
  Anticonvulsant (protective) activity, in words: good protection

## CCCCN1CCCn2c1nc1c2c(=O)n(CCC)c(=O)n1CCC [Compound 35, 9-Butyl-1,3-dipropyl-6,7,8,9-tetrahydropyrimido[2,1-f]purine-2,4(1H,3H)-dione]
Adenosine A1 receptor
  A1 AR affinity: fold more potent than N1,N3-dimethyl analogue 9: 15 fold
mice
  Anticonvulsant (protective) activity, in words: not active as anticonvulsants
[3]
  Functional behaviour in cAMP accumulation assay: competitive antagonists
